Source: US9447136B2, “Semisynthetic derivatives of Nystatin A1” (BLIRT S.A., priority 2012, dated 2016)
Values after ≈ are worked out from the molar mass of the structure shown.

Assays:
[1] = system: Aspergillus niger LOCK E201; assay: Antifungal activity in vitro, serial dilution in RPMI 1640; type: cell-based; details: Table 2B
Outline: (§1)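 In buffered RPMI 1640 at pH 7.0, fungi were exposed to serially diluted compound (M27-A2 standard) and turbidity was recorded at 531 nm. Values relative to control: IC50 at 50%, MIC as lowest concentration at ≤20%.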

[2] = system: Candida albicans ATCC 10231; assay: as above; type: cell-based; details: for Antifungal activity Candida albicans ATCC 10231 IC50 / Antifungal activity Candida albicans ATCC 10231 MIC: Table 2A, RPMI 1640, pH 7.0; for Antifungal activity Candida albicans ATCC 10231 IC50: A531 50% of control; for Antifungal activity Candida albicans ATCC 10231 MIC: A531 at most 20% of control; for MIC Candida albicans ATCC 10231: Table 2B
Outline: as §1

Candida arborea KKP 319 = assay: as above; type: cell-based; details: Table 2B
Outline: as §1

[3] = system: Candida dubliniensis CBS 7987; assay: as above; type: cell-based; details: Table 2B
Outline: as §1

[4] = system: Candida glabrata DSM 11226; assay: as above; type: cell-based; details: Table 2A; RPMI 1640, pH 7.0
Outline: as §1

Candida krusei DSM 6128 = assay: as above; type: cell-based; details: Table 2A; RPMI 1640, pH 7.0
Outline: as §1

[5] = system: Candida lipolytica KKP 322; assay: as above; type: cell-based; details: Table 2B
Outline: as §1

[6] = system: Candida lusitaniae DSM 70102; assay: as above; type: cell-based; details: Table 2A; RPMI 1640, pH 7.0
Outline: as §1

[7] = system: Candida parapsilosis DSM 5784; assay: as above; type: cell-based; details: Table 2B
Outline: as §1

[8] = system: Candida pseudotropicalis KKP 324; assay: as above; type: cell-based; details: Table 2B
Outline: as §1

[9] = system: Candida quilliermondii DSM 11947; assay: as above; type: cell-based; details: Table 2B
Outline: as §1

[10] = system: Candida stellatoidea CBS 1905; assay: as above; type: cell-based; details: Table 2B
Outline: as §1

[11] = system: Candida tropicalis KKP 334; assay: as above; type: cell-based; details: Table 2A; RPMI 1640, pH 7.0
Outline: as §1

[12] = system: Saccharomyces cerevisiae ATCC 9763; assay: as above; type: cell-based; details: for Antifungal activity Saccharomyces cerevisiae ATCC 9763 MIC: Table 2A, RPMI 1640, pH 7.0, A531 at most 20% of control; for MIC Saccharomyces cerevisiae ATCC 9763: Table 2B
Outline: as §1

[13] = system: Trichoderma viride LOCK E159; assay: as above; type: cell-based; details: Table 2B
Outline: as §1

Human erythrocytes = assay: Hemotoxicity (hemolytic activity); details: human erythrocytes
Outline: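 Human erythrocytes in saline (2×10^7/ml) were incubated with serially diluted compound at 37 °C for 30 min, then centrifuged. Released hemoglobin was read as A540 against 0.1% Triton X-100 as full hemolysis. EH50 is the interpolated concentration giving 50% of the control A540.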

Candida albicans 5674 = assay: Antifungal activity towards resistant (MDR) strains; type: cell-based; details: C. albicans 5674 overexpressing CDR1 and CDR2
Experimental: (§2) The determination of antifungal activity was performed by the serial dilutions method in buffered RPMI 1640 medium, in a 96-wells microplates, according to the standard procedure (National Committee for Clinical Laboratory Standards. Reference method for broth dilution antifungal susceptibility testing of yeast, approved standard, 2nd ed. M27-A2 vol. 22 Wayne, Pa., 2002). The optical density of cells suspension was measured using a microplates reader (Victor^3, Perkin-Elmer) at the wavelength λ=660 nm (A660). On the basis of received results the diagrams on interrelation between the A660 value and the concentration of tested compound were made. From these graphs MIC values were read, that are the concentrations of tested compounds, in the presence at which A660 value is at most 20% of A660 value measured in control sample.

Candida albicans B3 = assay: as above; type: cell-based; details: fluconazole sensitive, parent strain for B4
Experimental: as §2

Candida albicans B4 = assay: as above; type: cell-based; details: fluconazole-resistant due to the overexpression of CaMDR1
Experimental: as §2

Candida albicans F2 = assay: as above; type: cell-based; details: fluconazole sensitive, parent strain for F5
Experimental: as §2

Candida albicans F5 = assay: as above; type: cell-based; details: fluconazole-resistant due to the overexpression of CaMDR1 and ERG11
Experimental: as §2

Candida albicans Gu4 = assay: as above; type: cell-based; details: fluconazole sensitive, parent strain for Gu5
Experimental: as §2

Candida albicans Gu5 = assay: as above; type: cell-based; details: fluconazole-resistant due to the overexpression of CDR1 and CDR2
Experimental: as §2

Candida albicans STY19 = assay: as above; type: cell-based; details: 5674 mutant derivative, deletion of CDR1
Experimental: as §2

Candida albicans STY31 = assay: as above; type: cell-based; details: 5674 mutant derivative, deletion of CDR1 and CDR2
Experimental: as §2

Candida albicans STY7 = assay: as above; type: cell-based; details: 5674 mutant derivative, deletion of CDR2
Experimental: as §2

CCRF-CEM = assay: Cytotoxic activity against mammalian cells in tissue culture (MTT); type: cell-based, human; details: CCRF-CEM, 120 h, MTT
Outline: (§3)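 Cells at 1.2×10^4/well were exposed to serial 2× DMSO dilutions for 120 h at 37 °C: CCRF-CEM in RPMI 1640 + 10% FBS, HepG2 in MEM + 10% FBS, LLC-PK1 in Medium 199 + 3% FBS. MTT was added for 4 h and A540 read. IC50 is the concentration halving A540 versus DMSO control.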

HepG2 = assay: as above; type: cell-based, human; details: HepG2, 120 h, MTT
Outline: as §3

LLC-PK1 = assay: as above; type: cell-based, pig; details: LLC-PK1, 120 h, MTT
Outline: as §3

Row | Compound | MIC Aspergillus niger LOCK E201 [1] [µg/mL] | Antifungal activity Candida albicans ATCC 10231 IC50 [2] [µg/mL] | Antifungal activity Candida albicans ATCC 10231 MIC [2] [µg/mL] | MIC Candida albicans ATCC 10231 [2] [µg/mL] | MIC Candida arborea KKP 319 (Candida arborea KKP 319) [µg/mL] | MIC Candida dubliniensis CBS 7987 [3] [µg/mL] | Antifungal activity Candida glabrata DSM 11226 MIC [4] [µg/mL] | Antifungal activity Candida krusei DSM 6128 MIC (Candida krusei DSM 6128) [µg/mL] | MIC Candida lipolytica KKP 322 [5] [µg/mL] | MIC Candida parapsilosis DSM 5784 [7] [µg/mL] | MIC Candida pseudotropicalis KKP 324 [8] [µg/mL] | MIC Candida quilliermondii DSM 11947 [9] [µg/mL] | MIC Candida stellatoidea CBS 1905 [10] [µg/mL] | Antifungal activity Candida tropicalis KKP 334 MIC [11] [µg/mL] | Antifungal activity Saccharomyces cerevisiae ATCC 9763 MIC [12] [µg/mL] | MIC Saccharomyces cerevisiae ATCC 9763 [12] [µg/mL] | MIC Trichoderma viride LOCK E159 [13] [µg/mL] | MIC Candida albicans 5674 (Candida albicans 5674) [µg/mL] | MIC Candida albicans B3 (Candida albicans B3) [µg/mL] | MIC Candida albicans B4 (Candida albicans B4) [µg/mL] | other results
1 | CC1OC(O[C@H]2/C=C/C=C/C=C/C=C/CC/C=C/C=C/[C@H](C)[C@@H](O)[C@@H](C)[C@H](C)OC(=O)C[C@H](O)C[C@H](O)C[C@H](O)CC[C@@H](O)[C@H](O)CC3(O)C[C@H](O)[C@@H](C(=O)O)[C@H](C2)O3)C(O)C(NC(=S)NCC(C)(C)CN(C)C)C1O (stereo partly shown) [Compound N19, N-{3-[3-(N,N-dimethylamino)-2,2-dimethylpropyl]thioureidyl}nystatin A1] | 8 (≈ 7.28 µM) | 2.90 | 4 | 4 (≈ 3.64 µM) | 4 (≈ 3.64 µM) | 4 (≈ 3.64 µM) | 8 | 8 | 4 (≈ 3.64 µM) | 4 (≈ 3.64 µM) | 4 (≈ 3.64 µM) | 4 (≈ 3.64 µM) | 8 (≈ 7.28 µM) | 4 | 4 | 4 (≈ 3.64 µM) | 8 (≈ 7.28 µM) | 4 (≈ 3.64 µM) | 4 (≈ 3.64 µM) | 4 (≈ 3.64 µM) | Antifungal activity Candida lusitaniae DSM 70102 MIC [6]: 4 µg/mL; EH10 (Human erythrocytes; concentration causing 10% of hemolysis): 209.91 µg/mL; MIC Candida albicans F2 (Candida albicans F2): 4 µg/mL (≈ 3.64 µM); MIC Candida albicans F5 (Candida albicans F5): 4 µg/mL (≈ 3.64 µM); MIC Candida albicans Gu4 (Candida albicans Gu4): 4 µg/mL (≈ 3.64 µM); MIC Candida albicans Gu5 (Candida albicans Gu5): 4 µg/mL (≈ 3.64 µM); MIC Candida albicans STY19 (Candida albicans STY19): 4 µg/mL (≈ 3.64 µM); MIC Candida albicans STY31 (Candida albicans STY31): 4 µg/mL (≈ 3.64 µM); MIC Candida albicans STY7 (Candida albicans STY7): 4 µg/mL (≈ 3.64 µM); Cytotoxicity IC50 CCRF-CEM (CCRF-CEM): >100 µg/mL; Cytotoxicity IC50 HepG2 (HepG2): >100 µg/mL; Cytotoxicity IC50 LLC-PK1 (LLC-PK1): >100 µg/mL
2 | N-fructosyl-N-methylnystatin A1 [Compound N28] | 16 | 5.80 | 8 | 8 | 32 | 8 | 16 | 16 | 8 | 16 | 8 | 16 | 8 | 8 | 4 | 4 | 16 | 16 | 8 | 8 | Hemotoxicity BEH50 (Human erythrocytes; 37° C., 30 minutes, concentration causing 50% hemolysis, maximum concentration 300 μg/ml): >250 µg/mL; % of hemolysis at the concentration 60 μg ml^−1 (Human erythrocytes; 60 μg ml^−1): 0.17%; MIC Candida albicans F2 (Candida albicans F2): 8 µg/mL; MIC Candida albicans F5 (Candida albicans F5): 16 µg/mL; MIC Candida albicans Gu4 (Candida albicans Gu4): 8 µg/mL; MIC Candida albicans Gu5 (Candida albicans Gu5): 16 µg/mL; MIC Candida albicans STY19 (Candida albicans STY19): 16 µg/mL; MIC Candida albicans STY31 (Candida albicans STY31): 16 µg/mL; MIC Candida albicans STY7 (Candida albicans STY7): 16 µg/mL; Cytotoxicity IC50 CCRF-CEM (CCRF-CEM): >100 µg/mL; Cytotoxicity IC50 HepG2 (HepG2): >100 µg/mL; Cytotoxicity IC50 LLC-PK1 (LLC-PK1): >100 µg/mL
